{
  "source": "paper PMC8880564",
  "about": "“Design, Synthesis, and Biological Evaluation of a Novel VEGFR-2 Inhibitor Based on a 1,2,5-Oxadiazole-2-Oxide Scaffold with MAPK Signaling Pathway Inhibition” (Pharmaceuticals, 2022)",
  "key": {"[1]": {"system": "A2780CP", "assay": "MTT cell viability assay", "type": "cell-based", "conditions": "Homo sapiens, A2780C/P, Ovarian, 48 h, ± SD of triplicates", "procedure": "(§1) In addition, the morphological changes in 12b-treated cancer cell lines at concentrations of 6.25 and 12.50 µM are shown in Figure 6.\n(§2) According to the procedures of Skehan et al. (with minor modifications), the cancer or normal cells were seeded in a 96-well plate (100 µL/well). After overnight incubation at 37 °C and 5% CO2, the cells were incubated with 50 µM of each tested compound or DMSO (0.5% v/v). After 48 h of incubation, MTT (3-(4,5-dimethylthiazoyl)-2,5-diphenyl-tetrazolium bromide) 5 mg/mL Phosphate-Buffered Saline (PBS) was added, and the plate was incubated for 4 h. After that, acidified sodium dodecyl sulfate (SDS) solution (10% SDS containing 0.01N HCl in 1× PBS) was used to solubilize formazan crystals. The absorbance was measured after 14 h of incubation at λ570–630 nm by a Biotek plate reader (Gen5™)."}, "[2]": {"system": "A2780", "assay": "MTT cell viability assay", "type": "cell-based", "conditions": "Homo sapiens, Ovarian, 48 h, ± SD of triplicates", "procedure": "as §1, §2"}, "[3]": {"system": "HT-29", "assay": "MTT cell viability assay", "type": "cell-based", "conditions": "Homo sapiens, Colon, 48 h, ± SD of triplicates", "procedure": "as §1, §2"}, "[4]": {"system": "HepG2", "assay": "MTT cell viability assay", "type": "cell-based", "conditions": "Homo sapiens, Liver, 48 h, ± SD of triplicates", "procedure": "as §1, §2"}, "[5]": {"system": "MCF-7", "assay": "MTT cell viability assay", "type": "cell-based", "conditions": "Homo sapiens, MCF7, Breast, 48 h, ± SD of triplicates", "procedure": "as §1, §2"}, "[6]": {"system": "MDA-MB-231", "assay": "MTT cell viability assay", "type": "cell-based", "conditions": "Homo sapiens, Breast, 48 h, ± SD of triplicates", "procedure": "as §1, §2"}, "[7]": {"system": "HepG2 cells", "assay": "Cell-cycle analysis by flow cytometry (PI)", "type": "cell-based, human", "conditions": "HepG2, 48 h; 5.6 in DMSO-treated cells", "procedure": "The mechanism of action of 12b was investigated by evaluating its effectiveness in modulating the cell cycle and induction of apoptosis.\nAccording to Gray et al., HepG2 cells were seeded in a 6-well plate (2 mL/well) and incubated at 37 °C and 5% CO2 for 12 h. Cell synchronization at the G1 phase was performed by incubating the cells with serum-free medium for 12 h, then cells were treated with 5.5 or 11 μM of 12b. After 48 h of incubation, cells were washed twice with ice-cold 1× PBS and subjected to trypsinization. The detached cells were centrifuged at 500× g for 5 min at 4 °C. Then, the cell pellet was resuspended in ice-cold 1× PBS and fixed with absolute ethanol. After 2 h of incubation at −20 °C, the fixed cells were washed with ice-cold 1× PBS. The cell pellet was resuspended in propidium (PI)/RNase (BD Biosciences, BDB550825, Franklin Lakes, NJ, USA) and incubated for 30 min at room temperature (RT) in the dark, then the DNA content in each phase was measured by flow cytometry using BD FACS Calibur."}, "[8]": {"system": "MMP-9", "assay": "Western blot analysis in HepG2 cells", "type": "cell-based, human", "conditions": "HepG2, 48 h", "procedure": "(§3) The mitogen-activated protein kinase (MAPK) pathway is considered to be a key player in the gene expression of survival, proliferative, and anti-apoptotic proteins. Aberrant dysregulation in the MAPK pathway activity has been linked to the overall poor prognosis in various cancers. […] Additionally, compound 12b was further tested against p38, MKK3, and JNK using ELISA assay protocols at a concentration of 11 µM. […] The overexpression of JNK might have contributed to the NO released from 12b and reactive oxygen species (ROS). In summary, the novel anticancer lead compound 12b is worthy of further investigation and activity improvement.\n(§4) The cells were seeded (2.5 × 10^5 cells/mL) and treated as described above. After 48 h of incubation with compound 12b, cells were lysed by RIPA buffer containing 1x protease and phosphatase inhibitor cocktail (Thermo Scientific™, Waltham, MA, USA). The supernatant was collected after centrifugation at 4 °C and the Pierce BCA Protein Assay Kit (Thermo Scientific™, 23225, Waltham, MA, USA) was used for protein concentration detection. Proteins were then separated using SDS-PAGE at 100 V for 45 min. After that, the proteins were transferred to a nitrocellulose membrane. The membrane was subjected to a suitable primary antibody overnight. Then, an appropriate HRP-conjugated secondary antibody was used. GAPDH was used as a loading control. The membrane was developed using WesternBright® ECL (Advansta Inc., K-12045-D20, San Jose, CA, USA), and the signal was detected using ChemiDoc XRS^+ (1708265, Bio-Rad Laboratories, Hercules, CA, USA)."}, "[9]": {"system": "p21", "assay": "Western blot analysis in HepG2 cells", "type": "cell-based, human", "conditions": "HepG2, 48 h", "procedure": "as §3, §4"}, "[10]": {"system": "p27", "assay": "Western blot analysis in HepG2 cells", "type": "cell-based, human", "conditions": "HepG2, 48 h", "procedure": "as §3, §4"}, "[11]": {"system": "p53", "assay": "Western blot analysis in HepG2 cells", "type": "cell-based, human", "conditions": "HepG2, 48 h", "procedure": "as §3, §4"}, "[12]": {"system": "pERK", "assay": "Western blot analysis in HepG2 cells", "type": "cell-based, human", "conditions": "HepG2, 48 h", "procedure": "as §3, §4"}, "[13]": {"system": "total ERK", "assay": "Western blot analysis in HepG2 cells", "type": "cell-based, human", "conditions": "HepG2, 48 h", "procedure": "as §3, §4"}, "[14]": {"system": "JNK", "assay": "ELISA assay in HepG-2 cells", "type": "cell-based, human", "conditions": "HepG-2, 11 µM", "procedure": "as §3\n(§5) The p38, MKK3, and JNK assays were performed according to the manufacturer’s ELISA assay protocols. Briefly, a 96-well plate was seeded with a cell density of 10,000–40,000 cells/well. Then, 50 µL of compound 12b or control (DMSO) was added to appropriate wells in triplicate. Following this, 50 µL of the antibody cocktail (in case of p38; Cat. No. ab221012, Abcam (Waltham, MA, USA) and MKK3; Cat. No. PEL-MKK3-S189-T, RayBiotech, Peachtree Corners, GA, USA) was added to each well. The plate was then sealed and incubated for 1–2.5 h at room temperature with gentle shaking. Each well was washed with 1X Wash Buffer PT (4 × 350 µL), and then the plate was inverted and tapped gently against clean paper towels to remove excess liquid. In case of JNK (Cat. No. ab176662, Abcam, Waltham, MA, USA), this washing step was applied before and after adding 1X rabbit […] antibody, then 100 µL of HRP-conjugated anti-rabbit IgG solution was added and the plate was incubated for 1 h at room temperature with gentle shaking followed by washing (4 × 350 µL). After that, 100 µL of TMB Substrate was added to each well and incubated for 15–30 min in the dark with gentle shaking. Finally, 100 µL of Stop Solution was added to each well and the plate was shaken for 1 min to mix well. The OD was recorded at 450 nm."}, "[15]": {"system": "MKK3", "assay": "ELISA assay in HepG-2 cells", "type": "cell-based, human", "conditions": "HepG-2, 11 µM", "procedure": "as §3, §5"}, "[16]": {"system": "p38", "assay": "ELISA assay in HepG-2 cells", "type": "cell-based, human", "conditions": "HepG-2, 11 µM", "procedure": "as §3, §5"}},
  "data": [
    {"smiles": "[O-][n+]1onc(-c2ccccc2)c1CNc1ccc(Nc2nc(C(F)(F)F)nc3c2cnn3-c2ccc(Br)cc2)cc1", "note": "[12b, 3-(((4-((1-(4-bromophenyl)-6-(trifluoromethyl)-1H-pyrazolo[3,4-d]pyrimidin-4-yl)amino)phenyl)amino)methyl)-4-phenyl-1,2,5-oxadiazole 2-oxide]", "values": [
      {"measurement": "IC50", "setting": "[1]", "value": "11.6 ± 0.1", "unit": "µM"},
      {"measurement": "IC50", "setting": "[2]", "value": "15 ± 0.15", "unit": "µM"},
      {"measurement": "IC50", "setting": "[3]", "value": "15 ± 0.24", "unit": "µM"},
      {"measurement": "IC50", "setting": "[4]", "value": "11.5 ± 0.5", "unit": "µM"},
      {"measurement": "IC50", "setting": "[5]", "value": "22.3 ± 0.3", "unit": "µM"},
      {"measurement": "IC50", "setting": "[6]", "value": "13 ± 0.2", "unit": "µM"},
      {"measurement": "cell-cycle arrest at subG1", "setting": "[7]", "value": 24},
      {"measurement": "expression of metalloproteinase MMP-9", "setting": "[8]", "value": "downregulation"},
      {"measurement": "expression of p21", "setting": "[9]", "value": "over-expression"},
      {"measurement": "expression of p27", "setting": "[10]", "value": "over-expression"},
      {"measurement": "expression of p53", "setting": "[11]", "value": "slight increase in the expression"},
      {"measurement": "level of phosphorylated ERK", "setting": "[12]", "value": "decreased the level"},
      {"measurement": "level of total ERK", "setting": "[13]", "value": "decreased the level"},
      {"measurement": "relative expression of JNK", "setting": "[14]", "value": "overexpressed"},
      {"measurement": "relative expression of MKK3", "setting": "[15]", "value": "low expression"},
      {"measurement": "relative expression of p38", "setting": "[16]", "value": "low expression"}
    ]}
  ]
}
